Data reported in US20070260068A1, “Method for the Preparation of Crystal Forms of Torsemide in a Pure State” (priority 2004, published 2007).

Key:
[1] = stability of the crystal form in an ethanol slurry; assay type: physicochemical
Method: (§1) In another embodiment of the present invention, torsemide modification I may be made from torsemide modification II by reslurry in ethanol. By the process of the present invention, torsemide modification II is stirred at room temperature in ethanol for a time sufficient to induce the transformation of torsemide modification II to torsemide modification I. Preferably the mixture is stirred for 2 hours. Torsemide modification I is isolated upon filtering the mixture followed by drying under high vacuum at a temperature of about 40° C. to about 60° C. for a sufficient time to complete drying. Drying is complete upon reaching constant weight. It has been observed that torsemide modification I is stable in an ethanol slurry for at least 65 hours.
as §1, with “dimethyl formamide (DMF).” for “ethanol.”, “methods” for “process”, “DMF” for “ethanol”, “I.” for “I. Preferably the mixture is stirred for 2 hours.”, “It has been observed that torsemide modification I is stable in an ethanol slurry for at least 65 hours.” left out

[2] = solubility of amorphous torsemide compared with crystalline forms; assay type: physicochemical; conditions: isolated amorphous torsemide vs crystalline forms incl. those of U.S. 5,914,336, Re. 34,672 and WO 00/20395

In the case of `Cc1cccc(Nc2ccncc2S(=O)(=O)NC(=O)NC(C)C)c1` [torsemide modification I, 1-Isopropyl-3-[(4-m-toluidino-3-pyridyl)sulfonyl] urea], the “time stable in an ethanol slurry” value [1] was “at least 65 hours”.
With `Cc1cccc(Nc2ccncc2S(=O)(=O)NC(=O)NC(C)C)c1` [amorphous torsemide, 1-Isopropyl-3-[(4-m-toluidino-3-pyridyl)sulfonyl] urea] the “solubility relative to crystalline forms of torsemide” value [2] was “more soluble than crystalline forms of torsemide”.
